Laboratory results from BigSolDB 2.1.

Compound | solubility (mole fraction) (in n-octanol, 298.15 K) | solubility (mole fraction) (in n-octanol, 303.15 K) | solubility (mole fraction) (in n-octanol, 308.15 K) | solubility (mole fraction) (in n-octanol, 313.15 K) | solubility (mole fraction) (in n-octanol, 318.15 K) | solubility (mole fraction) (in water, 298.15 K) | solubility (mole fraction) (in water, 303.15 K) | solubility (mole fraction) (in water, 308.15 K) | solubility (mole fraction) (in water, 313.15 K) | solubility (mole fraction) (in water, 318.15 K)
COc1ccc(C2CC(=O)c3c(O)cc(O)cc3O2)cc1O (stereo not given) | 0.00269 | 0.00299 | 0.0033 | 0.00379 | 0.0042 | 5.51e-08 | 1.35e-07 | 2.52e-07 | 4.66e-07 | 7.9e-07
O=c1c(O)c(-c2ccc(O)c(O)c2)oc2cc(O)cc(O)c12 | 0.00526 | 0.00608 | 0.00677 | 0.00747 | 0.00823 | 5.29e-09 | 1.02e-08 | 1.61e-08 | 2.34e-08 | 3.78e-08
O=c1c(O)c(-c2ccc(O)cc2O)oc2cc(O)cc(O)c12 | 0.00226 | 0.00235 | 0.00251 | 0.00265 | 0.00288 | 6.19e-09 | 2.24e-08 | 3.25e-08 | 4.57e-08 | 9.53e-08
O=C1C[C@@H](c2ccc(O)cc2)Oc2cc(O)cc(O)c21 | 0.00903 | 0.00963 | 0.0103 | 0.0109 | 0.0114 | 1.79e-07 | 2.98e-07 | 4.96e-07 | 7.64e-07 | 1.1e-06
COc1ccc(-c2coc3cc(O)ccc3c2=O)cc1 | 0.00056 | 0.0006 | 0.00065 | 0.00069 | 0.00075 | 7.85e-10 | 3.51e-09 | 6.78e-09 | 1.08e-08 | 1.5e-08
O=C1c2c(O)cc(O)cc2OC(c2ccc(O)c(O)c2)C1O (stereo not given) | 0.0127 | 0.0141 | 0.0157 | 0.0176 | 0.0196 | 2.55e-05 | 3.18e-05 | 4.5e-05 | 6.88e-05 | 8.05e-05

Other lines, results leading:

solubility (mole fraction) (in n-octanol, 298.15 K) | solubility (mole fraction) (in n-octanol, 303.15 K) | solubility (mole fraction) (in n-octanol, 308.15 K) | solubility (mole fraction) (in n-octanol, 313.15 K) | solubility (mole fraction) (in n-octanol, 318.15 K) | solubility (mole fraction) (in water, 298.15 K) | solubility (mole fraction) (in water, 303.15 K) | solubility (mole fraction) (in water, 308.15 K) | solubility (mole fraction) (in water, 313.15 K) | solubility (mole fraction) (in water, 318.15 K) | Compound
0.0002 | 0.00021 | 0.00023 | 0.00025 | 0.00027 | 4.54e-08 | 6.74e-08 | 1.2e-07 | 1.91e-07 | 3.74e-07 | O=c1cc(-c2ccc(O)c(O)c2)oc2cc(O)cc(O)c12
0.00077 | 0.0008 | 0.00084 | 0.00094 | 0.00102 | 7.47e-09 | 1.73e-08 | 2.96e-08 | 5.87e-08 | 1.03e-07 | O=c1cc(-c2ccc(O)cc2)oc2cc(O)cc(O)c12
0.00208 | 0.00218 | 0.00228 | 0.00234 | 0.00247 | 5.95e-10 | 1.24e-09 | 3.63e-09 | 1e-08 | 1.88e-08 | O=c1cc(-c2ccccc2)oc2cc(O)cc(O)c12
0.00857 | 0.00895 | 0.00965 | 0.0103 | 0.0118 | 4.59e-10 | 1.17e-09 | 2.31e-09 | 4.48e-09 | 7.65e-09 | O=c1c(O)c(-c2ccc(O)cc2)oc2cc(O)cc(O)c12
